Here are results for 24 molecules from ChEMBL document CHEMBL4270663, “6-Benzhydryl-4-amino-quinolin-2-ones as Potent Cannabinoid Type 1 (CB1) Receptor Inverse Agonists and Chemical Modifications for Peripheral Selectivity” (J Med Chem, 2018).

One series concerns the target Cytochrome P450 3A4 (Homo sapiens, UniProt P08684). In words: Inhibition of CYP3A4 in human liver microsomes using midazolam/testosterone as substrate after 10 to 30 mins by LC/MS analysis. Format: ADME. In general terms: Liver microsomes are vesicles of endoplasmic reticulum, rich in cytochrome P450 enzymes.
A short description of series [1]: Metabolic stability in mouse liver microsomes assessed as parent compound remaining at 1 uM after 10 mins in presence of NADPH. It is filed as ADME, microsome. Particulars: read-out: Stability.
Another series has as its target Cytochrome P450 2D6 (Homo sapiens, UniProt P10635). In words: Inhibition of CYP2D6 in human liver microsomes using dextromethorphan as substrate after 10 to 30 mins by LC/MS analysis. It is filed as ADME.
The target in a further series is Cytochrome P450 2C19 (Homo sapiens, UniProt P33261). Kind of series: Inhibition of CYP2C19 in human liver microsomes using (S)-mephenytoin as substrate after 10 to 30 mins by LC/MS analysis. It is filed as ADME.
Series [2] in a line: Metabolic stability in rat liver microsomes assessed as parent compound remaining at 1 uM after 10 mins in presence of NADPH. It is filed as ADME, microsome. The settings on record: read-out: Stability.
For another series, the target named is Cytochrome P450 2C9 (Homo sapiens, UniProt P11712). In words: Inhibition of CYP2C9 in human liver microsomes using tolbutamide as substrate after 10 to 30 mins by LC/MS analysis. Format: ADME.
A short description of series [3]: Metabolic stability in human liver microsomes assessed as parent compound remaining at 1 uM after 10 mins in presence of NADPH. It is filed as ADME, microsome. The settings on record: read-out: Stability.
Another series concerns the target T1, Cytochrome P450 1A2 (Homo sapiens, UniProt P05177).
T1 sequence (P05177 whole entry): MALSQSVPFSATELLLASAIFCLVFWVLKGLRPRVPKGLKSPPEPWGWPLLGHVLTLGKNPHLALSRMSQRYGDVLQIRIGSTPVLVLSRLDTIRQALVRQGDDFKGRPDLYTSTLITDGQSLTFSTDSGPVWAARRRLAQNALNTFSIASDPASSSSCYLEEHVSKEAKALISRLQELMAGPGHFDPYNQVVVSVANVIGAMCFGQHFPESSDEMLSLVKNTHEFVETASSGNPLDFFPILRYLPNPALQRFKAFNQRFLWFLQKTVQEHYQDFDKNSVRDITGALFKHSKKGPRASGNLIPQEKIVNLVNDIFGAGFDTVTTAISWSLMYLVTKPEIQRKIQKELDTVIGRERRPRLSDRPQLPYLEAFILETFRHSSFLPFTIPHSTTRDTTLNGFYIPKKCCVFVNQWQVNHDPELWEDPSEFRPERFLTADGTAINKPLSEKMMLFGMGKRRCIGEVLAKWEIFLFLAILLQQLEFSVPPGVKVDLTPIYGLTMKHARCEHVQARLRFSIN
Kind of series: Inhibition of CYP1A2 in human liver microsomes using phenacetin as substrate after 10 to 30 mins by LC/MS analysis. Format: ADME.

The target of another series is Cannabinoid receptor 1 (Homo sapiens, UniProt P21554). Kind of series: Inverse agonist activity at human CB1 receptor expressed in HEK293 cells assessed as inhibition of forskolin-induced cAMP accumulation after 30 mins by HTRF assay. Format: functional, cell-based. A general note: Changes in cAMP serve as a functional read-out for many G protein-coupled receptors.

The next series concerns the target Cannabinoid receptor 2 (Homo sapiens, UniProt P34972). In words: Inverse agonist activity at human CB2 receptor expressed in HEK293 cells assessed as […] cAMP accumulation after 30 mins by HTRF assay. It is filed as functional, cell-based.
Series [4] in a line: Drug uptake in C57BL/6J mouse brain at 20 mg/kg, po measured after 4 hrs. Format: ADME, organism-based. Particulars: in vivo.
Series [5] is described as follows: Drug uptake in C57BL/6J mouse plasma at 20 mg/kg, po measured after 1 hr. It is filed as ADME, organism-based.
The nature of series [6]: Ratio of drug level in C57BL/6J mouse brain to plasma at 20 mg/kg, po measured after 4 hrs. Format: ADME, organism-based. The settings on record: read-out: BPR.
Series [7] is described as follows: Drug uptake in C57BL/6J mouse brain at 20 mg/kg, po measured after 1 hr. Format: ADME, organism-based. The settings on record: in vivo, BLD = below limit of detection.
Series [8] in a line: Drug uptake in C57BL/6J mouse plasma at 20 mg/kg, po measured after 4 hrs. It is filed as ADME, organism-based.
The subject of series [9] is Mus musculus. In words: Antiobesity activity in diet induced obese C57BL/6J mouse model assessed as decrease in body weight at 10 mg/kg administered as daily dose measured every day for 5 days. It is filed as functional, organism-based.
Series [10] is described as follows: Drug uptake in brain of diet-induced obese C57BL/6J mouse model at 10 mg/kg administered as daily dose measured at 2 hrs post last dose on day 5. Format: ADME, organism-based. Particulars: in vivo.
In series [11] the test system is Mus musculus. In words: Antiobesity activity in diet induced obese C57BL/6J mouse model assessed as decrease in food intake at 10 mg/kg administered as daily dose measured every day for 5 days. Format: functional, organism-based.
Series [12] in a line: Ratio of drug level in brain to plasma of diet-induced obese C57BL/6J mouse model at 10 mg/kg administered as daily dose measured at 2 hrs post last dose on day 5. Particulars: read-out: BPR. Format: ADME, organism-based.
In series [13] the test system is Mus musculus. In words: In vivo receptor occupancy at CB1 receptor in brain of diet induced obese C57BL/6J mouse model at 10 mg/kg, po administered as daily dose for 5 days measured 10 mins post last dose in presence of [3H]-CP-55940 relative to control. It is filed as functional.
The nature of series [14]: Drug uptake in plasma of diet-induced obese C57BL/6J mouse model at 10 mg/kg administered as daily dose measured at 2 hrs post last dose on day 5. Format: ADME, organism-based.

Activity calls are given as the source filed them. The rule behind the calls is not given here.

Cannabinoid receptor 2, sequence (P34972 whole entry): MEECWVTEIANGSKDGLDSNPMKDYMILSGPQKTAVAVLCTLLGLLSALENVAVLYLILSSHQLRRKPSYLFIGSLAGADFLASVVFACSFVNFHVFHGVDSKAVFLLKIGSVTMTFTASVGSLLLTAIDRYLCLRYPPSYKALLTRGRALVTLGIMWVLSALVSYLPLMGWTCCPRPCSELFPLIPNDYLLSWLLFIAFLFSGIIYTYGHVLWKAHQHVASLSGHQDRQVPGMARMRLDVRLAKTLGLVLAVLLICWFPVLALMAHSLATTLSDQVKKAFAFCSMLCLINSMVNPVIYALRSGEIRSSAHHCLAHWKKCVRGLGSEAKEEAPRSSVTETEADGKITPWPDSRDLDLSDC
Cannabinoid receptor 1, sequence (P21554 whole entry): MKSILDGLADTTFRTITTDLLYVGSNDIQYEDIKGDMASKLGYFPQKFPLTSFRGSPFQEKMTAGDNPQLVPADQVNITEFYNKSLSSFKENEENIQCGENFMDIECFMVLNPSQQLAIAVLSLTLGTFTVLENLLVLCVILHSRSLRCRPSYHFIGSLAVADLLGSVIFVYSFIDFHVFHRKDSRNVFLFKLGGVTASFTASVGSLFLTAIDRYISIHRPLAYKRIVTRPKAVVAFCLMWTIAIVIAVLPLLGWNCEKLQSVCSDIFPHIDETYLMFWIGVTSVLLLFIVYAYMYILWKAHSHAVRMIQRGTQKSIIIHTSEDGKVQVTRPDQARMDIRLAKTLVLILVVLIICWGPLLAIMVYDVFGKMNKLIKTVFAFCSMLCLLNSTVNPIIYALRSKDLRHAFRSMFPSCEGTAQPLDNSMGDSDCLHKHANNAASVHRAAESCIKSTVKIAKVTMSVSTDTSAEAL
Cytochrome P450 2C19, sequence (P33261 whole entry): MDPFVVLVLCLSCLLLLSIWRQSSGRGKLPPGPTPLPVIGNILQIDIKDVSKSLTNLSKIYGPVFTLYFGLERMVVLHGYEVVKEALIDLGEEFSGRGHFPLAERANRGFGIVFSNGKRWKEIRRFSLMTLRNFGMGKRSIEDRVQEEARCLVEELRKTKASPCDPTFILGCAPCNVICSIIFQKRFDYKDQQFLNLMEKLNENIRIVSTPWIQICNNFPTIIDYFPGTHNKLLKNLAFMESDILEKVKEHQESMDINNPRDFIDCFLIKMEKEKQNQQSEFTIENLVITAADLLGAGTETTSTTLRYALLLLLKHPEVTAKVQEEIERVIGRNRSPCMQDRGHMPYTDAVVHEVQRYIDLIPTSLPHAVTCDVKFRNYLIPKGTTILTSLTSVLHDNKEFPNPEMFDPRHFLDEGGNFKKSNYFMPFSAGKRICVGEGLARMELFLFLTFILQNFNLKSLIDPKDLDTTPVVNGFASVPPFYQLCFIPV
Cytochrome P450 2D6, sequence (P10635 whole entry): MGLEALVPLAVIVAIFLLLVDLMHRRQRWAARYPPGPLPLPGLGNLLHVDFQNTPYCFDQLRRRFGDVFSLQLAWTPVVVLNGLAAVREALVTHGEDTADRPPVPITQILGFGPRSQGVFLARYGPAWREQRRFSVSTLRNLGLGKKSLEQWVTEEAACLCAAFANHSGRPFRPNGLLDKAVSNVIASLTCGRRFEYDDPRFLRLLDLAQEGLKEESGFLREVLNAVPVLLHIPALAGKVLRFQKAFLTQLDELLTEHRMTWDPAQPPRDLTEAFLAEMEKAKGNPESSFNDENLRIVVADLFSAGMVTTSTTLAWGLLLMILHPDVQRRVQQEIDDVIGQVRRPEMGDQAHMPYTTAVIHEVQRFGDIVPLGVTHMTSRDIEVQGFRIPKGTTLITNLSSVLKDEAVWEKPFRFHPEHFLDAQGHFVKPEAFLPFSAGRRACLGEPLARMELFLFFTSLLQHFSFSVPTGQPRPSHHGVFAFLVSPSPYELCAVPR
Cytochrome P450 2C9, sequence (P11712 whole entry): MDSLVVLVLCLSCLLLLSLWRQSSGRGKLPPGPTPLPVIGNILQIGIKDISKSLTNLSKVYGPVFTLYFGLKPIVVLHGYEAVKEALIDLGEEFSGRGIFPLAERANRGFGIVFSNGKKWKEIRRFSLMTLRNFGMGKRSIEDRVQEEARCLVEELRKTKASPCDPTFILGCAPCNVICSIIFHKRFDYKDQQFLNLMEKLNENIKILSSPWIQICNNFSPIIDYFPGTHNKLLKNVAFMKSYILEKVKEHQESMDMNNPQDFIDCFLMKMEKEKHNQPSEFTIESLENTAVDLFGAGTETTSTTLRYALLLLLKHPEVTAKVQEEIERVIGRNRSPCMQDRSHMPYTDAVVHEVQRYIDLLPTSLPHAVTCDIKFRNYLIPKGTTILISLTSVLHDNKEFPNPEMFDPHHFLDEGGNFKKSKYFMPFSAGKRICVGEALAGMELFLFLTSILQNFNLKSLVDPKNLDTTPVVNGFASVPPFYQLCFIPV
Cytochrome P450 3A4, sequence (P08684 whole entry): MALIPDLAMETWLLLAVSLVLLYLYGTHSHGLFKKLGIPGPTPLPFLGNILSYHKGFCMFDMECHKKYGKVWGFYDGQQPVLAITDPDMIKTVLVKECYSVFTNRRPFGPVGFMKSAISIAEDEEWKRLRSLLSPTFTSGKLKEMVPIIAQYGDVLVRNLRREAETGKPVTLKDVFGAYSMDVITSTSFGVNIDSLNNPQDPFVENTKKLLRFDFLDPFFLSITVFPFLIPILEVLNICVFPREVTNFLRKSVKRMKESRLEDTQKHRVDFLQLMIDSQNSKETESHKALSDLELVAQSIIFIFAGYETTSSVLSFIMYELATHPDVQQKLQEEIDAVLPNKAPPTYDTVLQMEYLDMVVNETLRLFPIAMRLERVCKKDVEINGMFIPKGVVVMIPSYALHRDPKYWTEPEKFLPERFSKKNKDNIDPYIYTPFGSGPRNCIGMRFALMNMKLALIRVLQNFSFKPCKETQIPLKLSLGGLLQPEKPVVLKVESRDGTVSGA

As for `O=c1cc(NC2CCN(S(=O)(=O)C(F)(F)F)CC2)c2cc(C(c3ccc(Cl)cc3)c3nccs3)ccc2[nH]1` (stereo not given), the 50% inhibitory concentration (IC50) (usually the midpoint of a concentration-inhibition curve) on Cytochrome P450 3A4 was greater than 10000 nM; against Cytochrome P450 2D6, greater than 10000 nM; against Cytochrome P450 2C19, 8000 nM; against Cytochrome P450 2C9, greater than 10000 nM; against Cytochrome P450 1A2, greater than 10000 nM. The remaining at 10 min, 1 µM in [1] was determined as 47.8%; in series [2], 60.1%; in series [3], 62.2%.
For `O=c1cc(N[C@@H]2CCN(S(=O)(=O)C(F)(F)F)C2)c2cc(C(c3ccc(Cl)cc3)c3nccs3)ccc2[nH]1` (stereo not given in full), the remaining at 10 min, 1 µM in [1] is 19.1%; in [2] it was 27.9%; in series [3], 20.4%.
Consider `O=c1cc(CCc2ccccc2)c2cc(C(c3ccc(Cl)cc3)n3ccnc3)ccc2[nH]1` (stereo not given), for which the EC50 (commonly the concentration giving half of the maximal effect) at Cannabinoid receptor 1 was greater than 10000 nM.
As to `O=c1cc(/C=C/c2ccc(C(F)(F)F)cc2)c2cc(C(c3ccc(Cl)cc3)c3nccs3)ccc2[nH]1` (stereo not given), the IC50 against Cytochrome P450 3A4, against Cytochrome P450 2D6, on Cytochrome P450 2C19, at Cytochrome P450 2C9 and against Cytochrome P450 1A2 was greater than 10000 nM throughout.
For `COCCOc1cc(NC2CCN(S(=O)(=O)C(F)(F)F)CC2)c2cc(C(c3ccc(Cl)cc3)c3ccc(Cl)cc3)ccc2n1`, on Cannabinoid receptor 1, the EC50 came out at 22 nM.
The same measure, in the same setting: next, `O=c1cc(OCc2ccccc2)c2cc(C(c3ccc(Cl)cc3)n3ccnc3)ccc2[nH]1` (stereo not given): 1150 nM.
As to `COCCOCCOCCOCCOCCOCCOCCOc1cc(NC2CCN(S(=O)(=O)C(F)(F)F)CC2)c2cc(C(c3ccc(Cl)cc3)c3ccc(Cl)cc3)ccc2n1`, the figures for the EC50 on Cannabinoid receptor 2 and at Cannabinoid receptor 1 were 5900 nM and 457 nM, respectively.
As for `COc1ccc(C(c2ccc(Cl)cc2)c2ccc3[nH]c(=O)cc(NC4CCN(S(=O)(=O)C(F)(F)F)CC4)c3c2)cc1` (stereo not given), the EC50 on Cannabinoid receptor 1 was found to be 8.4 nM.
For the molecule `O=c1cc(NC2CCN(c3ncccn3)CC2)c2cc(C(c3ccc(Cl)cc3)c3ccc(Cl)cc3)ccc2[nH]1`, the Drug uptake in series [4] is on record as 0.107 nmol/g; in [7], “Bld”. Moreover, the remaining at 10 min, 1 µM in [1] came to 57%; in series [2], 69%; in [3] it was 43%. In series [5], this molecule displayed a concentration at 1 h of 4160 nM. In [6], the Kp at 4 h was found to be 0.037. For the same molecule, in series [8], the concentration at 4 h turned out to be 2890 nM.
Consider `O=C(O)COc1cc(C(c2ccc(Cl)cc2)c2ccc(Cl)cc2)cc2c(NC3CCN(S(=O)(=O)C(F)(F)F)CC3)ccnc12`, for which the EC50 on Cannabinoid receptor 2 was greater than 10000 nM.
With `O=c1cc(NC2CCN(S(=O)(=O)C(F)(F)F)CC2)c2cc(C(c3ccc(Cl)cc3)n3ccnc3)ccc2[nH]1` (stereo not given), the EC50 at Cannabinoid receptor 1 amounted to 5 nM.
With `COCCCc1cc(C(c2ccc(Cl)cc2)c2ccc(Cl)cc2)cc2c(NC3CCN(S(=O)(=O)C(F)(F)F)CC3)cc(=O)[nH]c12`, on Cannabinoid receptor 2, the EC50 came to 61 nM.
The same measure, in the same setting: next, `O=C(O)CCCCCOc1cc(NC2CCN(S(=O)(=O)C(F)(F)F)CC2)c2cc(C(c3ccc(Cl)cc3)c3ccc(Cl)cc3)ccc2n1`: 61 nM.
In the case of `CCOC(=O)CC(=O)N1CCC(Nc2cc(=O)[nH]c3ccc(C(c4ccc(Cl)cc4)c4ccc(Cl)cc4)cc23)CC1`, the EC50 at Cannabinoid receptor 1 was 13.5 nM.
For `O=c1cc(NC2CCN(S(=O)(=O)C(F)(F)F)CC2)c2cc(Cc3ccc(Cl)cc3)ccc2[nH]1`, on Cannabinoid receptor 1, the EC50 was found to be 260 nM.
On the same count and under the same terms, next, `O=c1cc([C@@H]2C[C@@H]2c2ccccc2)c2cc(C(c3ccc(Cl)cc3)n3ccnc3)ccc2[nH]1` (stereo not given in full): 66 nM; `O=c1cc(/C=C/c2ccccc2)c2cc(C(O)c3ccc(Cl)cc3)ccc2[nH]1` (stereo not given): greater than 10000 nM.
On the same count and under the same terms, the figure for `O=C(Nc1cc(=O)[nH]c2ccc(C(c3ccc(Cl)cc3)n3ccnc3)cc12)c1ccccc1` (stereo not given) is greater than 10000 nM.
In the case of `Cc1c(C(=O)NN2CCCCC2)nn(-c2ccc(Cl)cc2Cl)c1-c1ccc(Cl)cc1` [RIMONABANT], the outcome with Mus musculus [9] and in the series on Mus musculus [11] was Active. The molecule also registered a Drug uptake in series [10] of 1.46 nmol/g. Further, the Kp at 2 h in series [12] was 0.98. Moreover, the Occ in the series with Mus musculus [13] is 81.7%. Also, in series [14], the concentration at 2 h is 1500 nM.
Take `O=c1cc(Cc2ccc(OC(F)(F)F)cc2)c2cc(C(c3ccc(Cl)cc3)n3ccnc3)ccc2[nH]1` (stereo not given): on Cannabinoid receptor 1, the EC50 stood at 113 nM.
Still for that read-out and setting: the figure for `O=S(=O)(N1CCC(Nc2ccnc3c(O)cc(C(c4ccc(Cl)cc4)c4ccc(Cl)cc4)cc23)CC1)C(F)(F)F` is 399 nM.
The same measure, in the same setting: the figure for `O=c1cc(/C=C/c2ccccc2)c2cc(C(c3ccc(Cl)cc3)n3ccnc3)ccc2[nH]1` (stereo not given) is 165 nM.
Turning to `O=C(O)c1cccc(S(=O)(=O)N2CCC(Nc3cc(=O)[nH]c4ccc(C(c5ccc(Cl)cc5)c5ccc(Cl)cc5)cc34)CC2)c1`, the EC50 on Cannabinoid receptor 2 was 8690 nM.
On the same count and under the same terms, the figure for `CS(=O)(=O)N1CCC(Nc2cc(=O)[nH]c3ccc(C(c4ccc(Cl)cc4)c4ccc(Cl)cc4)cc23)CC1` is greater than 10000 nM.
